Earlier results as cited in patent US5281578A, “Gallium compounds” (Johnson Matthey Public Limited Company, priority 1992, dated 1994).
Read-outs that look alike come from different tables or passages of the source.

Tests used:
[1] = test system: renal toxicity
[2] = pH 4.5-7

absorption from the gastro-intestinal tract [2] | SMILES | renal toxicity ([1]; iv bolus) | renal toxicity ([1]; seven day continuous iv infusion, cancer-associated hypercalcemia)
– | [Ga] [gallium] | dose-limiting | no renal toxicity
very poorly absorbed | [Ga+3] [gallium(III) aquo-ion] | – | –
